Consider 22 compounds from patent US7125990B2, “Imidazolyl derivatives as corticotropin releasing factor inhibitors” (Bristol-Myers Squibb COmpany, priority 2001, dated 2006).

Bounds are passed on as bounds.

In this assay the target is T1, CRF1 receptors (Homo sapiens, UniProt P34998).
T1 construct: endogenous in cells; host or cells: IMR-32 cells, transformed with 2.5 µM 5'-bromo-2'-deoxyuridine for 10 days; membrane preparation
T1 sequence (P34998 24-415): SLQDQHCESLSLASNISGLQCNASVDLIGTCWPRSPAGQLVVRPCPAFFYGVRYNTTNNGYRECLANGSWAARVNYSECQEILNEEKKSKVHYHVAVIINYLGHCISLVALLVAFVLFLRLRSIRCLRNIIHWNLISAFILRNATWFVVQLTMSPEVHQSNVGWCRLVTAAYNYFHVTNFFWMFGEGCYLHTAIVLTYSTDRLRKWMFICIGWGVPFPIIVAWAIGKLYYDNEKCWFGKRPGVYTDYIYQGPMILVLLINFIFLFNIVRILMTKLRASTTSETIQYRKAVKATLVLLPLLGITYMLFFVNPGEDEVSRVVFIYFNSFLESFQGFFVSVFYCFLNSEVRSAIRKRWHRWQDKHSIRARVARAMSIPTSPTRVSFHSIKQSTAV
The assay can be described thus: CRF1 receptor radioligand binding assay ([125I]-oCRF competition, IMR-32 cell membranes). The conditions noted are these: IMR-32 cell membranes, [125I]-oCRF 100 pM; read-out: Ki (CRF-1R). An outline of the steps: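 Buffer: Tris pH 7.2 with MgCl2, BSA, Triton X-100, aprotinin, leupeptin; reaction stopped with ice-cold wash and filtered. Nonspecific binding set with 10 μM oCRF.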

For the compound `Cc1cc(C)c(N2CCCn3c2nc(C(F)(F)F)c3CN2CCC(C)CC2)c(C)c1` [Example 64, 3-(4-Methyl-piperidin-1-ylmethyl)-2-trifluoromethyl-8-(2,4,6-trimethyl-phenyl)-5,6,7,8-tetrahydro-imidazo[1,2-a]pyrimidine], the Ki is < 1000 nM.
The figure for `CCc1nc2n(c1C(=O)N(CC1CC1)CC(F)(F)F)CCN2c1c(C)cc(C)cc1C` [Example 5, 2-Ethyl-7-(2,4,6-trimethyl-phenyl)-6,7-dihydro-5H-imidazo[1,2-a]imidazole-3-carboxylic acid cyclopropylmethyl-(2,2,2-trifluoro-ethyl)-amide] is < 100 nM; for `CCCN(CCc1ccccc1)Cc1c(C(F)(F)F)nc2n(-c3ccc(Cl)cc3Cl)c3ccccc3n12` [Example 182, [8-(2,4-Dichloro-phenyl)-2-trifluoromethyl-8H-1,3a,8-triaza-cyclopenta[α]inden-3-ylmethyl]-phenethyl-propyl-amine] it is < 10000 nM; for `CCCN(Cc1c(C)nc2n(-c3c(C)cc(C)cc3C)c3ccccc3n12)CC1CC1` [Example 146, Cyclopropylmethyl-[2-methyl-8-(2,4,6-trimethyl-phenyl)-8H-1,3a,8-triaza-cyclopenta[α]inden-3-ylmethyl]-propyl-amine] it is < 100 nM.
The figure for `CCCN(CC1CC1)C(=O)c1c(C(F)(F)F)nc2n(-c3c(C)cc(C)cc3C)c(Cl)cn12` [Example 302, 6-Chloro-2-trifluoromethyl-7-(2,4,6-trimethyl-phenyl)-7H-imidazo[1,2-a]imidazole-3-carboxylic acid cyclopropylmethyl-propyl-amide] is < 100 nM; for `Cc1cc(C)c(N2CCCn3c2nc(C(F)(F)F)c3CN2CCCCC2C)c(Cl)c1` (stereo not shown) [Example 100, 8-(2-Chloro-4,6-dimethyl-phenyl)-3-(2-methyl-piperidin-1-ylmethyl)-2-trifluoromethyl-5,6,7,8-tetrahydro-imidazo[1,2-a]pyrimidine] it is < 1000 nM.
Next, `Cc1cc(C)c(-n2c3ncccc3n3c(CN(CC4CC4)CC(F)(F)F)c(C(F)(F)F)nc23)c(C)c1` [Example 210, Cyclopropylmethyl-(2,2,2-trifluoro-ethyl)-[2-trifluoromethyl-8-(2,4,6-trimethyl-phenyl)-8H-1,3a,7,8-tetraaza-cyclopenta[α]inden-3-ylmethyl]-amine]: < 100 nM.
For the compound `CCCN(CCC)Cc1c(C(F)(F)F)nc2n(-c3ccc(C(C)C)cc3Br)c3ccccc3n12` [Example 206, [8-(2-Bromo-4-isopropyl-phenyl)-2-trifluoromethyl-8H-1,3a,8-triaza-cyclopenta[α]inden-3-ylmethyl]-dipropyl-amine], the inhibition constant Ki was < 10000 nM.
The figure for `Cc1cc(C)c(N2CCCn3c2nc(C(F)(F)F)c3CN(CC2CCC2)CC(F)(F)F)c(C)c1` [Example 76, Cyclobutylmethyl-(2,2,2-trifluoro-ethyl)-[2-trifluoromethyl-8-(2,4,6-trimethyl-phenyl)-5,6,7,8-tetrahydro-imidazo[1,2-a]pyrimidin-3-ylmethyl]-amine] is < 100 nM.
The figure for `CCc1nc2n(-c3c(C)cc(C)cc3C)c3ncccc3n2c1CN(CC)CCc1ccccc1` [Example 248, Ethyl-[2-ethyl-8-(2,4,6-trimethyl-phenyl)-8H-1,3a,7,8-tetraaza-cyclopenta[α]inden-3-ylmethyl]-phenethyl-amine] is < 100 nM; for `CCC=C(CCC)c1c(CC)nc2n1CCN2c1c(C)cc(C)cc1C` [Example 48, 6-Ethyl-5-(1-propyl-but-1-enyl)-1-(2,4,6-trimethyl-phenyl)-2,3-dihydro-1H-imidazo[1,2-a]imidazole] it is < 100 nM.
Next, `Cc1cc(C)c(N2CCCn3c2nc(C(F)(F)F)c3CN(CCC2CC2)CC(F)(F)F)c(C)c1` [Example 90, (2-Cyclopropyl-ethyl)-(2,2,2-trifluoro-ethyl)-[2-trifluoromethyl-8-(2,4,6-trimethyl-phenyl)-5,6,7,8-tetrahydro-imidazo[1,2-a]pyrimidin-3-ylmethyl]-amine]: < 1000 nM; `CCN(CCC1CC1)Cc1c(C(F)(F)F)nc2n1CCCN2c1c(C)cc(C)cc1Cl` [Example 123, [8-(2-Chloro-4,6-dimethyl-phenyl)-2-trifluoromethyl-5,6,7,8-tetrahydro-imidazo[1,2-a]pyrimidin-3-ylmethyl]-(2-cyclopropyl-ethyl)-ethyl-amine]: < 1000 nM; `C=CCN(CC=C)Cc1c(C(F)(F)F)nc2n1CCCN2c1c(C)cc(C)cc1C` [Example 67, Diallyl-[2-trifluoromethyl-8-(2,4,6-trimethyl-phenyl)-5,6,7,8-tetrahydro-imidazo[1,2-a]pyrimidin-3-ylmethyl]-amine]: < 100 nM.
For `CCc1nc2n(c1C(=O)N(CC1CC1)CC(F)(F)F)CCN2c1c(C)cc(C)cc1Cl` [Example 27, 7-(2-Chloro-4,6-dimethyl-phenyl)-2-ethyl-6,7-dihydro-5H-imidazo[1,2-a]imidazole-3-carboxylic acid cyclopropylmethyl-(2,2,2-trifluoro-ethyl)-amide], the Ki is < 100 nM.
As for `CCCN(Cc1ccccc1)Cc1c(C(F)(F)F)nc2n1CCCN2c1c(C)cc(C)cc1Cl` [Example 130, Benzyl-[8-(2-chloro-4,6-dimethyl-phenyl)-2-trifluoromethyl-5,6,7,8-tetrahydro-imidazo[1,2-a]pyrimidin-3-ylmethyl]-propyl-amine], the Ki is < 1000 nM.
The figure for `Cc1cc(C)c(N2CCCn3c2nc(C(F)(F)F)c3CN2CCC(C)CC2)c(Cl)c1` [Example 102, 8-(2-Chloro-4,6-dimethyl-phenyl)-3-(4-methyl-piperidin-1-ylmethyl)-2-trifluoromethyl-5,6,7,8-tetrahydro-imidazo[1,2-a]pyrimidine] is < 1000 nM; for `CCCN(Cc1c(C(F)(F)F)nc2n1CCCN2c1c(C)cc(C)cc1C)CC1CC1` [Example 59, Cyclopropylmethyl-propyl-[2-trifluoromethyl-8-(2,4,6-trimethyl-phenyl)-5,6,7,8-tetrahydro-imidazo[1,2-a]pyrimidin-3-ylmethyl]-amine] it is < 100 nM; for `Cc1cc(C)c(-n2c3ncccc3n3c(CN(CC4CC4)CC4CC4)c(C(F)(F)F)nc23)c(C)c1` [Example 214, Bis-cyclopropylmethyl-[2-trifluoromethyl-8-(2,4,6-trimethyl-phenyl)-8H-1,3a,7,8-tetraaza-cyclopenta[α]inden-3-ylmethyl]-amine] it is < 100 nM.
As to `CCCN(Cc1ccc(Cl)cc1)Cc1c(C(F)(F)F)nc2n1CCCN2c1c(C)cc(C)cc1Cl` [Example 129, (4-Chloro-benzyl)-[8-(2-chloro-4,6-dimethyl-phenyl)-2-trifluoromethyl-5,6,7,8-tetrahydro-imidazo[1,2-a]pyrimidin-3-ylmethyl]-propyl-amine], the Ki is < 1000 nM.
Next, `CCc1nc2n(-c3c(C)cc(C)cc3C)c(Cl)cn2c1C(=O)N1CC(C)CC(C)C1` (stereo not shown) [Example 300]: < 100 nM.
The figure for `Cc1cc(C)c(N2CCCn3c2nc(C(F)(F)F)c3CN2CCSCC2)c(Cl)c1` [Example 98, 8-(2-Chloro-4,6-dimethyl-phenyl)-3-thiomorpholin-4-ylmethyl-2-trifluoromethyl-5,6,7,8-tetrahydro-imidazo[1,2-a]pyrimidine] is < 1000 nM.

For orientation: Ki means a dissociation constant, usually derived from enzyme kinetics or from competition with a known ligand.
